Where two headings read alike, the source gives them in different places.
Legend:
[1] = tested on: cultured human mast cells (CHMC); experiment: CHMC low cell density IgE activation: tryptase assay; type: cell-based; settings: IgE activation
Summary of the method: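 Tryptase release, fluorogenic substrate, 30 min RT. Prior anti-IgE stimulation of CHMC, 30 min, 37 °C, after 1 hr preincubation at 1000–1500 cells/well in MT; unstimulated wells received MT.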

[2] = tested on: cultured human mast cells (CHMC); experiment: CHMC low cell density ionomycin activation: tryptase assay; type: cell-based; settings: Homo sapiens, Mast cell, low cell density CHMC, read-out: LD Tryptase, CHMC, Iono, 3 pt
[3] = target: T1, Syk kinase (Homo sapiens, UniProt P43405); experiment: Syk kinase biochemical fluorescence polarization assay; settings: read-out: fp_syk, 11 pt
T1 construct: purchased Upstate, Lake Placid N.Y
Description: Many of the 2,4-pyrimidinediamine compounds were tested for the ability to inhibit Syk kinase catalyzed phosphorylation of a peptide substrate in a biochemical fluorescenced polarization assay with isolated Syk kinase. In this experiment, Compounds were diluted to 1% DMSO in kinase buffer (20 mM HEPES, pH 7.4, 5 mM MgCl2, 2 mM MnCl2, 1 mM DTT, 0.1 mg/mL acetylated Bovine Gamma Globulin). Compound in 1% DMSO (0.2% DMSO final) was mixed with ATP/substrate solution at room temperature. Syk kinase (Upstate, Lake Placid N.Y.) was added to a final reaction volume of 20 uL, and the reaction was incubated for 30 minutes at room temperature. […] EDTA (10 mM final)/anti-phosphotyrosine antibody (1× final)/fluorescent phosphopeptide tracer (0.5× final) was added in FP Dilution Buffer to stop the reaction for a total volume of 40 uL according to manufacturer's instructions (PanVera Corporation) The plate was incubated for 30 minutes in the dark at room temperature. Plates were read on a Polarion fluorescence polarization plate reader (Tecan). Data were converted to amount of phosphopeptide present using a calibration curve generated by competition with the phosphopeptide competitor provided in the Tyrosine Kinase Assay Kit, Green (PanVera Corporation).

[4] = Homo sapiens, Mast cell, low cell density CHMC, tryptase, 3 pt, read-out: LD Tryptase, CHMC, IgE, 3 pt
[5] = Homo sapiens, Mast cell, low cell density CHMC, tryptase, 8 pt, read-out: LD Tryptase, CHMC, IgE, 8 pt
[6] = Homo sapiens, Mast cell, low cell density CHMC, tryptase release, 8 point, read-out: LD Tryptase, CHMC, IgE, 8 pt
[7] = Homo sapiens, Mast cell, low cell density CHMC, tryptase release, 3 pt, read-out: LD Tryptase, CHMC, IgE, 3 pt
[8] = Homo sapiens, Mast cell, low cell density CHMC, tryptase release, 8 pt, read-out: LD Tryptase, CHMC, IgE, 8 pt

Row | SMILES | IC50 [1, 4] | IC50 [1, 5] | IC50 ([3]; isolated Syk kinase, 11 pt) | other results
1 | CNC(=O)CNC(=O)c1ccc(Nc2ncc(F)c(Nc3ccc4c(c3)C(N)CCO4)n2)cc1 (racemic) [Compound 1299, (R,S)-N4-[4-Amino-3,4-dihydro-2H-1-benzopyran-6-yl]-5-fluoro-N2-[4-[N-(N-methylamino)carbonylmethylene]aminocarbonylphenyl]-2,4-pyrimidinediamine] | < 10 µM | < 10 µM | < 10 µM | IC50 ([2]; tryptase, 3 pt): > 10 µM
2 | COc1ccc(Nc2nc(Nc3cccc(-c4ncco4)c3)ncc2F)cc1OC [Compound 423, N4-(3,4-Dimethoxyphenyl)-5-fluoro-N2-[3-(oxazol-2-yl)phenyl]-2,4-pyrimidinediamine] | < 10 µM | < 10 µM | < 10 µM | IC50 ([2]; tryptase, 3 pt): > 10 µM
3 | COc1ccc(N(C)c2nc(Nc3cccc(-c4ncco4)c3)ncc2F)cc1OC [Compound 439, N4-(3,4-Dimethoxyphenyl)-5-fluoro-N4-methyl-N2-[3-(oxazol-2-yl)phenyl]-2,4-pyrimidinediamine] | < 10 µM | < 10 µM | > 10 µM | IC50 ([2]; tryptase, 3 pt): > 10 µM
4 | CNC(=O)COc1ccc(Nc2nc(Nc3ccc4ccn(CC(=O)NC)c4c3)ncc2F)cc1Cl [Compound 648, N4-[3-Chloro-4-(N-methylamino)carbonylmethyleneoxyphenyl]-5-fluoro-N2-[1-(N-methylamino)carbonylmethyleneindol-6-yl]-2,4-pyrimidinediamine] | – | – | – | IC50 ([1]; Homo sapiens, Mast cell, low cell density CHMC, tryptase release, 3 point, read-out: LD Tryptase, CHMC, IgE, 3 pt): < 10 µM; IC50 [1, 6]: < 10 µM; IC50 ([2]; tryptase release, 3 point): > 10 µM; IC50 ([3]; isolated Syk kinase, 11 point): < 10 µM
5 | CNC(=O)COc1ccc(Nc2nc(Nc3ccc4c(ccn4CC(=O)NC)c3)ncc2F)cc1Cl [Compound 652, N4-[3-Chloro-4-(N-methylamino)carbonylmethyleneoxyphenyl]-5-fluoro-N2-[1-(N-methylamino)carbonylmethyleneindol-5-yl]-2,4-pyrimidinediamine] | – | – | – | IC50 [1, 6]: < 10 µM; IC50 ([3]; isolated Syk kinase, 11 point): < 10 µM
6 | COCCCn1ncc2cc(Nc3ncc(F)c(Nc4ccc(OC)c(Cl)c4)n3)ccc21 [Compound 792, N4-(3-Chloro-4-methoxyphenyl)-5-fluoro-N2-[1-(3-methoxypropyl)indazol-5-yl]-2,4-pyrimidinediamine] | – | – | < 10 µM | IC50 [1, 7]: < 10 µM; IC50 [1, 8]: < 10 µM; IC50 ([2]; tryptase release, 3 pt): > 10 µM
7 | C[C@@H]1Oc2ccc(Nc3nc(Nc4ccc5c(c4)c(N)nn5C)ncc3F)cc2NC1=O [Compound 807, (S)-N2-(3-Amino-1-methylindazol-5-yl)-5-fluoro-N4-(2-methyl-3-oxo-4H-benz[1,4]oxazin-6-yl)-2,4-pyrimidinediamine] | – | – | < 10 µM | IC50 [1, 8]: < 10 µM
8 | Cn1c(N2CCOCC2)nc2cc(Nc3ncc(F)c(Nc4ccc(Cl)c(Cl)c4)n3)ccc21 [Compound 942, N4-(3,4-Dichlorophenyl)-5-fluoro-N2-[1-methyl-2-(4-morpholino)benzimidazol-5-yl]-2,4-pyrimidinediamine] | – | – | – | IC50 ([1]; low cell density, 3 pt, read-out: LD Tryptase, CHMC, IgE, 3 pt): < 10 µM; IC50 ([1]; low cell density, 8 pt, read-out: LD Tryptase, CHMC, IgE, 8 pt): < 10 µM; IC50 ([3]; 11 pt): < 10 µM
9 | COc1ccc(Nc2nc(Nc3ccc4c(c3)nc(N3CCOCC3)n4C)ncc2F)cc1Cl [Compound 943, N4-(3-Chloro-4-methoxyphenyl)-5-fluoro-N2-[1-methyl-2-(4-morpholino)benzimidazol-5-yl]-2,4-pyrimidinediamine] | – | – | – | IC50 ([1]; Homo sapiens, Mast cell, low cell density, 3 pt, read-out: LD Tryptase, CHMC, IgE, 3 pt): < 10 µM; IC50 ([3]; 11 pt): < 10 µM
10 | Fc1cnc(Nc2ccc3[nH]c(N4CCOCC4)nc3c2)nc1Nc1ccc(Cl)c(Cl)c1 [Compound 975, N4-(3,4-Dichlorophenyl)-5-fluoro-N2-[2-(4-morpholino)-1H-benzimidazol-5-yl]-2,4-pyrimidinediamine] | – | – | – | IC50 ([1]; Homo sapiens, Mast cell, low cell density, 8 pt, read-out: LD Tryptase, CHMC, IgE, 8 pt): < 10 µM; IC50 ([3]; 11 pt): < 10 µM
11 | CN1CCN(c2ccc(Nc3ncc(F)c(NC4CCCCC4)n3)cc2Cl)CC1 [Compound 1191, N2-[3-Chloro-4-(4-methylpiperazino)phenyl]-N4-cyclohexyl-5-fluoro-2,4-pyrimidinediamine] | < 10 µM | – | < 10 µM | –
12 | COc1ccc(Nc2nc(Nc3ccc(C(N)=O)cc3)ncc2F)cc1Cl [Compound 1321, N2-(4-Aminocarbonylphenyl)-N4-(3-chloro-4-methoxyphenyl)-5-fluoro-2,4-pyrimidinediamine] | – | < 10 µM | < 10 µM | –
13 | CC1(C)Oc2ccc(Nc3ncc(F)c(Nc4ccc(C(N)=O)cc4)n3)cc2NC1=O [Compound 1337] | < 10 µM | < 10 µM | < 10 µM | –
14 | Cc1noc(COc2ccc(Nc3nc(Nc4ccc(C(N)=O)cc4)ncc3F)cc2)n1 [Compound 1341, N2-(4-Aminocarbonylphenyl)-5-fluoro-N4-(4-[3-methyl-1,2,4-oxadiazol-5-yl]methyleneoxyphenyl)-2,4-pyrimidinediamine] | < 10 µM | < 10 µM | < 10 µM | –
15 | COc1cc(Cl)cc(Nc2ncc(F)c(Nc3ccc(OCc4nc(C)no4)cc3)n2)c1 [Compound 1345, N2-(3-Chloro-5-methoxyphenyl)-5-fluoro-N4-(4-[3-methyl-1,2,4-oxadiazol-5-yl]methyleneoxyphenyl)-2,4-pyrimidinediamine] | > 10 µM | – | < 10 µM | –

Further lines, with some results ahead:

Row | IC50 [1, 4] | IC50 [1, 5] | IC50 ([3]; isolated Syk kinase, 11 pt) | SMILES | other results
16 | < 10 µM | < 10 µM | < 10 µM | COc1cc(Nc2nc(Nc3cc(C)cc(C)c3)ncc2F)cc(OC)c1 [Compound 350] | IC50 ([2]; tryptase, 3 pt): > 10 µM
17 | < 10 µM | < 10 µM | < 10 µM | COc1cc(OC)cc(N(C)c2nc(Nc3cc(C)cc(C)c3)ncc2F)c1 [Compound 399, N4-(3,5-Dimethoxyphenyl)-N2-(3,5-dimethylphenyl)-5-fluoro-N4-methyl-2,4-pyrimidinediamine] | IC50 ([2]; tryptase, 3 pt): > 10 µM
18 | > 10 µM | > 10 µM | > 10 µM | COc1ccc(N(C)c2nc(Cl)ncc2F)cc1OC [Compound 417] | IC50 ([2]; tryptase, 3 pt): > 10 µM
19 | – | – | < 10 µM | COc1ccc(Nc2nc(Nc3ccc4[nH]c(C(F)(F)F)nc4c3)ncc2F)cc1Cl [Compound 800, N4-(3-Chloro-4-methoxyphenyl)-5-fluoro-N2-(2-trifluoromethyl-1H-benzimidazol-5-yl)-2,4-pyrimidinediamine] | IC50 [1, 7]: < 10 µM; IC50 [1, 8]: < 10 µM; IC50 ([2]; tryptase release, 3 pt): < 10 µM
20 | – | – | < 10 µM | COc1ccc(Nc2nc(Nc3ccc4c(c3)c(N)nn4C)ncc2F)cc1Cl [Compound 804, N2-(3-Amino-1-methylindazol-5-yl)-N4-(3-chloro-4-methoxyphenyl)-5-fluoro-2,4-pyrimidinediamine] | IC50 [1, 8]: < 10 µM
21 | – | – | < 10 µM | COc1ccc(Nc2nc(Nc3ccc4c(cnn4CCCNC(C)=O)c3)ncc2F)cc1Cl [Compound 819, N2-[1-[3-(N-Acetylamino)propyl]indazol-5-yl]-N4-(3-chloro-4-methoxyphenyl)-5-fluoro-2,4-pyrimidinediamine] | IC50 [1, 8]: < 10 µM
22 | – | < 10 µM | < 10 µM | Nc1nc(Nc2nc(Nc3ccc4cn[nH]c4c3)ncc2F)n[nH]1 [Compound 1255] | –
23 | – | < 10 µM | < 10 µM | CCN(CC)CCNC(=O)c1ccc(Nc2ncc(F)c(Nc3ccc(OC)c(Cl)c3)n2)cc1 [Compound 1320, N4-(3-Chloro-4-methoxyphenyl)-5-fluoro-N2-(4-[2-[N,N-diethylamino]ethyleneaminocarbonyl]phenyl)-2,4-pyrimidinediamine] | –
24 | < 10 µM | < 10 µM | < 10 µM | CCN(CC)CCNC(=O)c1ccc(Nc2ncc(F)c(Nc3ccc(OCc4nc(C)no4)cc3)n2)cc1 [Compound 1343, N2-(4-[2-[N,N-Diethylamino]ethyleneaminocarbonyl]phenyl)-5-fluoro-N4-(4-[3-methyl-1,2,4-oxadiazol-5-yl]methyleneoxyphenyl)-2,4-pyrimidinediamine] | –
25 | < 10 µM | > 10 µM | < 10 µM | Cc1noc(COc2ccc(Nc3nc(Nc4cc(Cl)c(O)c(Cl)c4)ncc3F)cc2)n1 [Compound 1344, N2-(3,5-Dichloro-4-hydroxyphenyl)-5-fluoro-N4-(4-[3-methyl-1,2,4-oxadiazol-5-yl]methyleneoxyphenyl)-2,4-pyrimidinediamine] | –
